In PMC9414910, “Optimized ^68Ga-Labeled Urea-Based PSMA-Targeted PET Tracers for Prostate Cancer” (Pharmaceuticals, 2022):

What was measured:
[1] = Partition coefficient, octanol–water system; assay type: physicochemical; details: octanol–water (v/v = 1:1), n = 3
Procedure: The partition coefficient of each novel radiotracer was determined using an octanol–water system (v/v = 1:1). The in vitro stability was determined using two systems (PBS and 5% BSA). The Ki value was measured by the NAALADase assay. The 22Rv1 and PC-3 cell lines were used for the cell-binding study and establishment of the tumor-bearing model (detailed information is shown in the Supplementary Materials).
PBS) and reported as log p ± SD. […]

[2] = tested on: 22Rv1 cells (mild PSMA+); assay: Cell uptake / binding in 22Rv1 cells; assay type: cell-based, human; details: 60 min incubation, 37 °C
From the text: Cell lines were kindly provided by the stem cell bank of the Chinese Academy of Sciences. The human prostate cancer epithelial cell lines 22Rv1 (mild PSMA+) and PC-3 (with no PSMA receptor) were used to evaluate the specific cell-binding affinity of the radiotracers, and the results were expressed as percentages of injected activity, IA%/10^6.
Cell Lines and Culture Condition
Cell lines were kindly provided by the stem cell bank, the Chinese Academy of Sciences. The human prostate cancer cell lines 22Rv1 ( mild PSMA positive) and PC3 (PSMA negative) were cultured in RPMI 1640 medium or F12K medium (CORNING, America), supplemented with 10% Fetal Bovine Serum
(GIBCO, The Netherlands) and 1% penicillin-streptomycin (CORNING, America) in a humidified incubator at 37 °C under 5% CO2. Each cell line was passaged when it was at around 80-90% confluence, and harvested using trypsin-ethylenediaminetetraacetic acid (trypsin-EDTA; 0.25% trypsin, 0.02% EDTA, all from KeyGEN BioTECH).
Cells were seeded separately in 24 well plates (1 x 10^5 cells in 1 mL medium/well) and incubated overnight, the medium was changed 2 h before the experiment. For the binding experiments, cells were incubated with novel […]
min, 30 min and 60 min (6 wells/time point). After incubation, the medium was removed and the cells were washed twice with ice-cold phosphate-buffered saline (0.5 mL). Finally, the cells were lysed by NaOH (0.5 M, 0.5 mL). Coincubation of 2-(phosphonomethyl) pentane-1,5-dioic acid […]
(2-PMPA) solution (2 μg/well) and each radiotracer for 60 min was conducted as the blocking experiment. The radioactivity of cells was measured by a γ-counter. The studies were performed in triplicate and the results were reported as the percentage injected activity (IA%/10^6 cells). […]

[3] = Blood pharmacokinetics in male ICR mice; assay type: in vivo; details: 7.4 MBq i.v., two-compartment model
Procedure: Injection of novel radiotracers or [68Ga]Ga-PSMA-617 or [68Ga]Ga-PSMA-11 […]
mice (5 mice/group), and the blood sample (5 μL) of each mouse was collected by cutting down the tail end at different time points post injection. The radioactivity of blood samples were measured by a γ-counter and the pharmacokinetics data was calculated using the WinNonlin software.
Figure S3. Time-activity curves of the blood samplesafter injection of 7.4 MBq of [68Ga]Ga-PSMA-4PY (A), [68Ga]Ga-PSMA-Q (B),[68Ga]Ga-PSMA-P (C), [68Ga]Ga-PSMA-617 (D), [68Ga]Ga-PSMA-11 (E), [68Ga]Ga-PSMA-Q-1 (F), [68Ga]Ga-PSMA-Q-2 (G) and [68Ga]Ga-PSMA-Q-3 (H).
(1 picture or pasted object on this page, not shown here)

[4] = tested on: 22Rv1 tumor-bearing mice; assay: Biodistribution in 22Rv1 tumor-bearing mice; details: for Uptake Blood, Mean / Uptake Bone, Mean / Uptake Heart, Mean / Uptake Kidney, Mean / Uptake Liver, Mean / Uptake Lung, Mean / Uptake Muscle, Mean / Uptake Spleen, Mean / Uptake Tumor (22Rv1), Mean: 0.74 MBq, n = 3
Procedure: (§1) The animal studies were approved by the institutional animal care and use committee of the Chinese PLA General Hospital. Healthy male ICR mice were injected with either a novel radiotracer (37 MBq in 150 μL) or saline (150 μL) for the radiotoxicity evaluation. […] Biodistribution and micro-PET studies were performed on 22Rv1 and PC-3 xenograft models, and 2-PMPA was used as the PSMA blocker (all details are shown in the Supplementary Materials).
BALB/c nude mice (male, 4-6 weeks) were inoculated subcutaneously with […]
100 mm3, the mice underwent biodistribution study and Micro-PET imaging.
The 22Rv1 tumor-bearing mice were injected with each novel radiotracer or […]
[…] Mice were sacrificed at different time points p.i. (10 min, 30 min, 60 min), tumors and interested organs were harvested, weighed and measured by a γ-counter, the results were expressed as the percentage of injected dose per gram (ID%/g).
Table S1. Uptake values for ex vivo tissues of [ 68Ga]Ga-PSMA-Q (0.74 MBq/mice) in 22Rv1 tumor-bearing mice (10, 30 and 60 min p.i., n = 3/time point).

[5] = tested on: 22Rv1 tumors; assay: Micro-PET imaging in 22Rv1 tumor-bearing mice; assay type: in vivo; details: 60 min p.i.
Procedure: as §1
Table S9. Tumor-to-mu scle (T/M) ratio and tumor- to-kidney (T/K) rati o of radiotracers at 60 min p.i.
The Mice bearing 22Rv1 and PC-3 (n = 3/group) xenograft tumors were […]
Co-injection with 2-PMPA (50 μ g) and each novel tracer (7.4 MBq in 150 μL) was used for blocking. Then the mice were anesthetized with 3% (v/v) isoflurane and underwent Micro-PET scans with continuous 1% (v/v) isoflurane. The images were acquired at 60 min p.i.. In comparison, […]
into another group of mice (n = 3), and Micro-PET schedule was performed as […]
Imaging was performed on a Super Nova PET/CT scanner using a 100-mm-transaxial field of view for PET and 110-mm for CT.
Three-dimensional ordered-subsets expectation maximization reconstruction

[6] = biodistribution, 22Rv1 tumor-bearing mice, 60 min p.i.

O=C([O-])CN1CCN(CC(=O)[O-])CCN(CC(=O)NCC2CCC(C(=O)NC(Cc3ccc4ccccc4c3)C(=O)NCCCCC(NC(=O)NC(CCC(=O)O)C(=O)O)C(=O)O)CC2)CCN(CC(=O)O)CC1.[68Ga+3] (stereo not drawn) [[^68Ga]Ga-PSMA-617, reference compound]
Log p pH = 7.4 [1]: −2.54 ± 0.13 | Uptake in 22Rv1 cells [2]: 4.01 ± 0.42 IA%/10^6 | Elimination half-life [3]: 28.46 ± 1.64 min | Uptake Blood, Mean ([4]; 10 min p.i.): 2.21 ID%/g | Uptake Bone, Mean ([4]; 10 min p.i.): 1.17 ID%/g | Uptake Heart, Mean ([4]; 10 min p.i.): 2.11 ID%/g | Uptake Kidney, Mean ([4]; 10 min p.i.): 16.30 ID%/g | Uptake Liver, Mean ([4]; 10 min p.i.): 1.89 ID%/g | Uptake Lung, Mean ([4]; 10 min p.i.): 1.40 ID%/g | Uptake Muscle, Mean ([4]; 10 min p.i.): 0.87 ID%/g | Uptake Spleen, Mean ([4]; 10 min p.i.): 2.11 ID%/g | Uptake Tumor (22Rv1), Mean ([4]; 10 min p.i.): 2.10 ID%/g | Uptake Blood, Mean ([4]; 30 min p.i.): 0.58 ID%/g | Uptake Bone, Mean ([4]; 30 min p.i.): 0.38 ID%/g | Uptake Heart, Mean ([4]; 30 min p.i.): 1.20 ID%/g | Uptake Kidney, Mean ([4]; 30 min p.i.): 25.77 ID%/g | Uptake Liver, Mean ([4]; 30 min p.i.): 1.13 ID%/g | Uptake Lung, Mean ([4]; 30 min p.i.): 0.95 ID%/g | Uptake Muscle, Mean ([4]; 30 min p.i.): 0.31 ID%/g | Uptake Spleen, Mean ([4]; 30 min p.i.): 1.31 ID%/g | Uptake Tumor (22Rv1), Mean ([4]; 30 min p.i.): 3.36 ID%/g | Uptake Blood, Mean ([4]; 60 min p.i.): 0.33 ID%/g | Uptake Bone, Mean ([4]; 60 min p.i.): 0.29 ID%/g | Uptake Heart, Mean ([4]; 60 min p.i.): 0.10 ID%/g | Uptake Kidney, Mean ([4]; 60 min p.i.): 29.78 ID%/g | Uptake Liver, Mean ([4]; 60 min p.i.): 0.51 ID%/g | Uptake Lung, Mean ([4]; 60 min p.i.): 0.33 ID%/g | Uptake Muscle, Mean ([4]; 60 min p.i.): 0.15 ID%/g | Uptake Spleen, Mean ([4]; 60 min p.i.): 0.95 ID%/g | Uptake Tumor (22Rv1), Mean ([4]; 60 min p.i.): 4.27 ± 0.10 ID%/g | Uptake Tumor (22Rv1), Mean ([4]; 60 min p.i., listed as [68Ga]Ga-PSMA-617): 4.27 ID%/g | Tumor-to-kidney (T/K) ratio [4, 6]: 0.14 ± 0.01 | Tumor-to-muscle (T/M) ratio [4, 6]: 28.43 ± 0.84 | Clearance profile in the kidneys ([4]; within 60 min p.i.): continuously accumulated in the kidneys | SUVmax of tumor ([5]; 22Rv1 tumor, 7.4 MBq): 0.85 ± 0.14 | Tumor-to-muscle ratio (micro-PET) ([5]; 22Rv1 tumor-bearing mice): 20.43 ± 1.06
